Consider six molecules from patent US20260234128A1, “CRYSTALLINE FORMS OF 2-(4-(4-(AMINOMETHYL)-1-OXO-1,2- DIHYDROPHTHALAZIN-6-YL)-1-METHYL-1H- PYRAZOL-5-YL)-4-CHLORO-6-CYCLOPROPOXY-3-FLUOROBENZONITRILE” (MIRATI THERAPEUTICS, INC., priority 2023, published 2026).

Data set [1] in a line: Competitive slurry experiments (relative stability of crystal forms). Format: physicochemical. An excerpt: Pattern A was observed under certain conditions during competitive slurry experiments. Pattern A was confirmed to be racemate by chiral HPLC analysis.
A short description of data set [2]: Dynamic vapor sorption (DVS) hygroscopicity. The following applies: for form change after DVS evaluation: sample after DVS. Format: physicochemical. As to the method:
The hygroscopicity of HCl Form A was also evaluated by conducting dynamic vapor sorption experiments.
The hygroscopicity of HCl Form B was also evaluated by conducting dynamic vapor sorption experiments.
The hygroscopicity of HCl Form E was also evaluated by conducting dynamic vapor sorption experiments.

A short description of data set [3]: Pharmacokinetics after oral capsule administration in male beagle dogs pre-treated with pentagastrin or famotidine. Format: in vivo. The procedure: The substances were filled into Empty HPMC Capsules after correcting for potency and administered to dogs pre-treated with either pentagastrin or famotidine along with 40 mL of water. Pentagastrin enhances gastric secretions whereas famotidine neutralizes gastric sections. Therefore, pentagastrin and famotidine pre-treatments were used to simulate the impact of gastric pH on bioavailability and reduce the variability in gastric pH between dogs.
Plasma samples were collected at pre-defined intervals and analyzed for the concentration of Compound 1. The plasma concentration versus time data was analyzed by non-compartmental approaches using Win Nonlin software program to estimate PK parameters such as Cmax, Tmax, AUC0-t and AUC0-inf.

Data set [4] can be described thus: Excipient compatibility (binary mixtures, total impurity by HPLC). Format: physicochemical. An excerpt: Binary mixtures of samples were created by mixing the substance and the excipients (1:10 Compound to Excipients for fillers and 1:1 for all other excipients) using a mortar and pestle and the resultant mixture was accurately weighed and transferred into sample vials. The excipients used were as follows: colloidal silicon dioxide 200, croscarmellose sodium, crospovidone XL-10, dibasic calcium phosphate (an), hydroxypropyl cellulose, lactose monohydrate, magnesium stearate, mannitol 100SD, MCC PH102, Opadry™ II, povidone K-30, pregelatinized starch 1500, sodium starch glycolate, and sodium stearyl fumarate. The sample vials were set down at 40° C./75% RH condition for 8 weeks in open condition before analyzing their impurity levels using HPLC.

The nature of data set [5]: Intrinsic dissolution rate and drug in capsule dissolution in FaSSGF and FaSSIF. Format: physicochemical. The procedure:
The IDR rate was calculated using the slope of the linear curve divided by the surface area of tablet (0.5 cm^2). […] 0.6 mL liquid was removed with a syringe at each time point and filtered. The concentration of filtrates was analyzed by HPLC.

A short description of data set [6]: Manufacturability and physical stability (compressibility, tabletability, compatibility, XRD after compaction). Format: physicochemical. The procedure:
The XRD patterns were compared with the uncompressed compound. X-ray powder diffractograms were obtained on a wide-angle X-ray diffraction instrument (X'Pert Pro; PANalytical Inc., West Borough, MA) using Cu Ká radiation. The voltage and current applied were 45 kV and 40 mA, respectively. Each measurement was performed with a step size of 0.0167° in the 2-theta range of 5-35° and a dwell time of 0.4 s.

[7] abbreviates: 25° C. between 10% relative humidity and 90% relative humidity, hydrochloride salt.

The structures appear in SMILES notation. Structures can show the parent of a compound that is named as a salt.

For `Cn1ncc(-c2ccc3c(=O)[nH]nc(CN)c3c2)c1-c1c(F)c(Cl)cc(OC2CC2)c1C#N` [amorphous HCl salt, 2-(4-(4-(aminomethyl)-1-oxo-1,2-dihydrophthalazin-6-yl)-1-methyl-1H-pyrazol-5-yl)-4-chloro-6-cyclopropoxy-3-fluorobenzonitrile], in data set [1] (EtOH/H2O (40:60 v/v) at 25° C., 1d (a clear solution was obtained before precipitation)), the “Crystal Form” value was “Pattern A”.

With `Cn1ncc(-c2ccc3c(=O)[nH]nc(CN)c3c2)c1-c1c(F)c(Cl)cc(OC2CC2)c1C#N` [HCl Form A, 2-(4-(4-(aminomethyl)-1-oxo-1,2-dihydrophthalazin-6-yl)-1-methyl-1H-pyrazol-5-yl)-4-chloro-6-cyclopropoxy-3-fluorobenzonitrile hydrochloride salt], the “water uptake (DVS isotherm)” value in data set [2] (setting [7]) was “approximately 1.43%”. In data set [2], the “Hygroscopicity (25° C./80% RH), class in words” value is “slightly” and the “form change after DVS evaluation” value is recorded as “No form change was observed”. Besides, the “Hygroscopicity (25° C./80% RH)” value in data set [2] (hydrochloride salt) is 1.43%. In data set [3] (conclusion drawn from the dog study results), the “stability relative to the other HCl form” value is recorded as “less stable than HCl Form B”.

Consider `Cn1ncc(-c2ccc3c(=O)[nH]nc(CN)c3c2)c1-c1c(F)c(Cl)cc(OC2CC2)c1C#N` [HCl Form E, 2-(4-(4-(aminomethyl)-1-oxo-1,2-dihydrophthalazin-6-yl)-1-methyl-1H-pyrazol-5-yl)-4-chloro-6-cyclopropoxy-3-fluorobenzonitrile hydrochloride salt], for which the “Crystal Form” value in data set [1] (H2O (starting with Type E only) at 25° C., 4 d) was “Form B”. Moreover, in data set [1] (H2O (starting with Type E only) at 25° C., 8 d), the “Crystal Form” value is “Form B”. The “water uptake (DVS isotherm)” value in data set [2] (25° C. between 0% relative humidity and 80% relative humidity) is given as “approximately 2.56%”. In data set [2], the “Hygroscopicity (25° C./80% RH), class in words” value was “slightly” and the “form change after DVS evaluation” value is recorded as “No form change was observed”. Besides, the “Hygroscopicity (25° C./80% RH)” value in data set [2] (hydrochloride salt) is given as 2.56%.

Take `Cn1ncc(-c2ccc3c(=O)[nH]nc(CN)c3c2)c1-c1c(F)c(Cl)cc(OC2CC2)c1C#N` [Free Base Form A, 2-(4-(4-(aminomethyl)-1-oxo-1,2-dihydrophthalazin-6-yl)-1-methyl-1H-pyrazol-5-yl)-4-chloro-6-cyclopropoxy-3-fluorobenzonitrile]: the “compatibility with excipients (total impurity content)” value in data set [4] (binary mixtures, 40° C./75% RH, 8 weeks, open condition, HPLC) was “good compatibility with excipients”. The “sensitivity to individual excipients” value in data set [4] (colloidal silicon dioxide and lactose monohydrate, 40° C./75% RH, 8 weeks, open) was “more sensitive to colloidal silicon dioxide and lactose monohydrate than HCl Form B”. Also, in data set [4] (with excipients, manageable by choice of excipients), the “risk of chemical stability” value is recorded as “slightly higher”. The “dissolution in gastric media” value in data set [5] (37° C., 50 rpm, USP Type II) is “faster dissolution in gastric media”. Besides, the “super saturation in intestinal fluid” value in data set [5] (pH shifted from gastric to intestinal after 30 minutes) is given as “able to maintain super saturation in intestinal fluid”. In data set [3] (oral 100 mg/dog, when the particle size was normalized), the exposure entry was “equivalent exposure to HCl salt”.

Consider `Cn1ncc(-c2ccc3c(=O)[nH]nc(CN)c3c2)c1-c1c(F)c(Cl)cc(OC2CC2)c1C#N` [HCl Form B, 2-(4-(4-(aminomethyl)-1-oxo-1,2-dihydrophthalazin-6-yl)-1-methyl-1H-pyrazol-5-yl)-4-chloro-6-cyclopropoxy-3-fluorobenzonitrile hydrochloride salt], for which, in data set [6] (at high pressures), the “compatibility (tensile strength vs porosity)” value was “good”, the “compressibility (porosity vs compaction pressure)” value was “good” and the “tabletability (tensile strength vs compaction pressure)” value was “good”. The “phase stability by XRD after compression” value in data set [6] (high compaction pressure (300 MPa)) is reported as “loss of crystallinity was observed”. Besides, in data set [2] (setting [7]), the “water uptake (DVS isotherm)” value is recorded as “approximately 1.3%”. In addition, in data set [2], the “Hygroscopicity (25° C./80% RH), class in words” value is reported as “slightly” and the “form change after DVS evaluation” value is given as “No form change was observed”. Moreover, in data set [2] (hydrochloride salt), the “Hygroscopicity (25° C./80% RH)” value is listed as 1.3%. Further, in data set [5] (37° C., 50 rpm, USP Type II), the “dissolution rate in intestinal media” value is reported as “slightly faster dissolution rate than Free Base Form A”. The “dissolution in gastric media” value in data set [5] (37° C., 50 rpm, USP Type II, hydrochloride salt) was “common ion effect slowing dissolution”.

In the case of `Cn1ncc(-c2ccc3c(=O)[nH]nc(CN)c3c2)c1-c1c(F)c(Cl)cc(OC2CC2)c1C#N` [HCl salt, 2-(4-(4-(aminomethyl)-1-oxo-1,2-dihydrophthalazin-6-yl)-1-methyl-1H-pyrazol-5-yl)-4-chloro-6-cyclopropoxy-3-fluorobenzonitrile hydrochloride salt], the “variability of plasma exposure” value in data set [3] (pentagastrin-treated dogs, oral 100 mg/dog, ascribed to common ion effect in the gastric media) is reported as “high variability”.
